Values quoted from earlier work in patent publication US20050171131A1, “Diaminopyrimidine derivatives as growth hormone secrectgogue receptor (GHS-R) antagonists” (priority 2003, published 2005).
Non-standard residues stand in square brackets, D forms with d. No end group written: not given here.

[1] = repeated administration, ob/ob mice

**Q.** What does the source list for H-H[dW][dK]W[dF]K [[D-Lys-3]-GHRP]?
**A.** energy intake (lean mice, mice with diet induced obesity, ob/ob obese mice): decrease energy intake; rate of gastric emptying (mice): reduced the rate of gastric emptying; body weight [1]: decreased body weight; glycemic control [1]: improved glycemic control
